Where two headings read alike, the source gives them in different places.
Assays:
[1] = system: ERK phosphorylation in PC3-101P3A11 cells; experiment: ERK phosphorylation in PC3-101P3A11 and PC3-neo cells (anti-Phospho-ERK Western blot); assay type: cell-based, human; details: PC3-101P3A11 cells
Procedure: Using Western blotting and other techniques, the ability of 101P3A11 to regulate these pathways is confirmed. Cells expressing or lacking 101P3A11 are either left untreated or stimulated with cytokines, androgen and anti-integrin antibodies. Cell lysates were analyzed using anti-phospho-specific antibodies (Cell Signaling, Santa Cruz Biotechnology) in order to detect phosphorylation and regulation of ERK, p38, AKT, PI3K, PLC and other signaling molecules. […] In the experiment, data shown in FIG. 26, control 3T3-neo and 3T3-101P3A11 cells were either treated with 0.5 or 10% FBS and whole cell lysates were analyzed by anti-phosphotyrosine Western blotting.
In this experiment, control PC3-neo cells and PC3-101P3A11 cells were left untreated (0.1% FBS) or were stimulated with 10% FBS, lipophosphatidic acid (LPA), gastrin releasing peptide (GRP), leukotriene (LKB4) or platelet activating factor (PAF). The cells were lysed and analyzed by Western blotting using anti-Phospho-ERK (FIG. 27A) or anti-ERK (FIG. 27B) mAb. […] In order to delineate the signaling pathway by which 101P3A11 mediates ERK phosphorylation in cancer cells, it was confirmed which of the two pathway inhibitors: MEK inhibitor PD98059 or the p38 inhibitor SB203580 regulate 101P3A11 mediated ERK phosphorylation (FIG. 28). […] Cells were lysed and analyzed by Western blotting using anti-Phospho-ERK or anti-ERK mAb. Treatment with 10% FBS or with GRP induced the phosphorylation of ERK in PC3-101P3A11 but not in control PC3-neo cells. 101P3A11-mediated ERK phosphorylation was inhibited by the MEK-1 inhibitor PD98059 but not the p38 inhibitor SB203580 or genistein.
Results in FIGS. 26-28 indicate that 101P3A11 regulates the activity of kinases, including ERK, and phosphatases. In order to confirm the association of 101P3A11 with phosphatase activity, the effect of the protein phosphatase inhibitor sodium orthovanadate on 101P3A11 mediated ERK phosphorylation was determined (FIG. 29). PC3-neo and PC3-101P3A11 cells were grown in media alone or in the presence of sodium orthovanadate (Na3VO4), and were stimulated with 0.1% or 10% FBS. Cells were lysed and analyzed by Western blotting using anti-Phospho-ERK or anti-ERK mAb. […] Results in FIG. 29 confirm the contribution of protein phosphatases to 101P3A11 mediated signaling.
In order to determine whether 101P3A11 signaling results in the activation of EGFR, we compared the effect of the EGFR inhibitor, AG1517, on EGFR- and 101P3A11-mediated ERK phosphorylation (FIG. 30). In FIG. 30, PC3-neo and PC3-101P3A11 cells were grown in media alone (0.1% FBS) or in the presence of AG1517. The cells were stimulated with 0.1% or 10% FBS, GRP or EGF, lysed and analyzed by Western blotting using anti-Phospho-ERK or anti-ERK mAb. Treatment with 10% FBS, GRP and EGF induced ERK phosphorylation in PC3-101P3A11 cells. […] Data in FIG. 30 indicate that some cross talk occurred between 101P3A11 and EGFR signaling pathways.
Since adenylate cyclase activity modulates intracellular levels of cAMP and induce downstream signaling events such as activation of protein kinase A, calcium and ERK MAPK signaling (Pierce K. L., et al, Oncogene. 2001, 20: 1532), we determined that PTX, an inhibitor of adenylate cyclase signaling, prevents 101P3A11-mediated ERK phosphorylation along with inhibiting cAMP accumulation (FIG. 33 and FIG. 34). PC3-neo and PC3-101P3A11 cells were grown overnight in 0.1% FBS in media alone or in the presence of pertussis toxin (PTX). Cells were stimulated with 0.1% or 10% FBS (FIG. 33) or 10% FBS, EGF or GRP (FIG. 34). Cells were lysed and analyzed by Western blotting using anti-Phospho-ERK mAb. Expression of 101P3A11 mediated ERK phosphorylation by 10% FBS in PC3 cells, which was inhibited by PTX (FIG. 33 and FIG. 34).
GPCR transmit their signal by activating trimeric G proteins. […]

[2] = system: cAMP accumulation in PC3-101P3A11 cells; experiment: cAMP accumulation in PC3 and PC3-101P3A11 cells (enzyme immunoassay); assay type: cell-based, human
Procedure: Olfactory receptors are known to regulate biological responses by activating adenylate cyclase. In order to confirm that 101P3A11 functions as a GPCR and mediates the activation of adenylate cyclase, cAMP accumulation in PC3 and PC3-101P3A11 cells were compared (FIG. 32). Control PC3 and PC3-101P3A11 cells were grown in a low concentration of fetal bovine serum (FBS) for 14 hrs in the presence or absence of pertussis toxin (PTX). The cells were stimulated with 0.1% or 10% FBS, washed in PBS and lysed using a lysis buffer provided by Amersham Pharmacia. Intracellular concentration of cAMP was measured using a commercially available enzyme immunoassay (EIA) according to the manufacturer's recommendations (Amersham Pharmacia). Each assay was performed in duplicate. Calculations of cAMP concentrations were based on OD450 of the standard curve. Expression of 101P3A11 induced a four-fold increase in cAMP accumulation in the absence of stimulation. Treatment with 10% FBS further enhanced cAMP accumulation in PC3-101P3A11 cells to nearly seven-fold over control PC3-neo cells. 101P3A11 mediated cAMP accumulation was inhibited by PTX.
In order to confirm that anti-101P3A11 pAb has a detectable effect on cAMP accumulation, PC3 and PC3-101P3A11 cells were grown in 0.1% FBS and treated with anti-101P3A11 pAb. Cells were analyzed for cAMP content as described in FIG. 32. […]

## pertussis toxin [PTX]
[1]; 10% FBS
  inhibition of FBS-mediated ERK phosphorylation: inhibited
[1]; GRP or EGF
  effect on GRP and EGF-mediated ERK phosphorylation: relatively unaffected
[2]
  inhibition of 101P3A11 mediated cAMP accumulation: partially inhibited
[2]; listed as pertussis toxin
  inhibition of 101P3A11 mediated cAMP accumulation: inhibited

From patent US8236510B2, “Protein showing enhanced expression in cancer cells” (Agensys, Inc., priority 1999, dated 2012)
